Data set [1] has as its system GABAA receptor. The experiment in a line: [3H]Flunitrazepam binding assay (enhancement) in rat brain cerebral cortex homogenates. Particulars: for [3H]Flunitrazepam Emax: percentage of Emax determined for allopregnanolone; for EC50: rat cortical membranes, 1.0 μM GABA, 1.0 nM [3H]flunitrazepam, mean±SD. As for the experimental part: (§1) Tissue preparation. Rat brain cerebral cortex homogenates and the binding assays were conducted essentially as described (Carter et al., 1997). Briefly, adult male Sprague-Dawley rats (Charles River Laboratories, Raleigh, N.C.) were killed by excess CO2 asphyxiation, decapitated, and their brain rapidly removed and frozen on dry ice before being stored −76° C. The frozen cortices were placed in 10 volumes of an ice-cold 0.32 M sucrose solution and homogenized with a Teflon-glass homogenizer. The homogenate was centrifuged at 1500×g (10 min at 4° C.). The supernatant was retained and centrifuged at 10,000×g (20 min at 4° C.), yielding the P2 pellet. The P2 pellet was resuspended in an equal volume of a 50 mM Na+/K+ phosphate buffer containing 200 mM NaCl (pH 7.4) and centrifuged at 10,000×g (10 min at 4° C.). The pellet was washed twice more, resuspended in 1/10 volume of buffer and stored at −76° C. until the time of assay.
[^3H]Flunitrazepam binding assay. This assay was conducted as described for the [^35S]TBPS assay except that the assays contained 20 μg tissue homogenate, 1.0 μM GABA and 1.0 nM [^3H]flunitrazepam (74.1-85 Ci/mmol). Clonazepam (1.0 μM) was used to determine nonspecific binding.

Data set [2] concerns the target GABAA receptor. Nature of the data set: [35S]TBPS binding assay in rat brain cerebral cortex homogenates. Particulars: rat cortical membranes, 6.25 μM GABA, 2 nM [35S]TBPS; mean±SD. The method, then:
as §1
[^35S]TBPS binding assays. These assays were carried out in 1.4 mL polypropylene tubes (Matrix Technologies, Hudson, N.H.). In a final volume of 0.5 mL, each tube contained 100 μL cortical membrane suspension (40 μg of protein, added last) 2 nM [^35S]TBPS (64-165 Ci/mmol), 6.25 μM GABA and one of six different concentrations of test compound added as 5 μL in 100% DMSO (1% final DMSO concentration). The test compounds were added to the assay tubes using a BiomekFX automated liquid handler with 96-well head (Beckman-Coulter, Fullerton, Calif.). Nonspecific binding was determined in the presence of 200 μM picrotoxin. The assays were incubated for 2 h at RT before being terminated by vacuum filtration through 96-well GF/B glass filter plates using a 96-well harvester (Brandel Scientific, Gaithersburg, Md.). Prior to harvesting, the filter plates were pre-soaked for 20 min in buffer containing 0.15% BSA and 0.1% PEI. The radioactivity remaining on the filter was determined in a TopCount 12-detector scintillation counter (Packard Instruments, Meriden, Conn.) using 20 μl of MicroScint20 (Packard Instruments) per well and standard liquid scintillation counting techniques.

The subject of data set [3] is pentylenetetrazole (PTZ) induced seizures. The experiment in a line: PTZ seizure test. Format: in vivo. Particulars: FIG. 3; mice. As for the experimental part:
(§2) Male NIH Swiss mice (25-30 g) were housed two per cage. Animals were kept in a vivarium (temperature 22-26° C.; humidity 40-50%) with an artificial 12-h light/dark cycle and free access to food and water. Animals were allowed to acclimate to the vivarium for at least 5 days. The experiments were performed during the light phase of the light/dark cycle (between 9:30 AM and 3:30 PM), after at least a 30-min period of acclimation to the experimental room. Animals were maintained in facilities fully accredited by the Association for Assessment and Accreditation of Laboratory Animal Care, and experiments were performed under protocols approved by the Animal Care and Use Committee of the National Institute of Neurological Disorders and Stroke in strict compliance with the Guide for the Care and Use of Laboratory Animals of the National Research Council (National Academy Press, Washington, D.C.
Solutions of the steroids were made fresh daily in 40% hydroxypropyl-β-cyclodextrin in sterile 0.9% saline. Further dilutions were made using sterile saline. The steroids were injected intraperitoneally. The convulsant agent pentylenetetrazol (PTZ; Sigma-Aldrich) was dissolved in saline immediately before use. […]
The PTZ seizure test was carried out as described (Kokate et al., 1994). […] Mice failing to show clonic seizures lasting longer than 5 s were scored as protected. […]

Data set [4] concerns electrically (6 Hz) induced seizures. The experiment in a line: 6-Hz seizure test. It is filed as in vivo. The settings on record: FIG. 3; mice. The method, then: as §2
Solutions of the steroids were made fresh daily in 40% hydroxypropyl-β-cyclodextrin in sterile 0.9% saline. Further dilutions were made using sterile saline. The steroids were injected intraperitoneally. The convulsant agent pentylenetetrazol (PTZ; Sigma-Aldrich) was dissolved in saline immediately before use. All drug solutions were administered in a volume equaling 0.01 mL/g of the animal's body weight. […]

Data set [5] concerns elevated zero maze behaviour. The experiment in a line: Elevated zero maze test of anxiolytic activity. It is filed as in vivo. The settings on record: therapeutic doses, mice. As for the experimental part:
as §2, with “D.C. […]” for “D.C.”
Anxiolytic activity was assessed with the elevated zero-maze as described (Kaminski et al., 2006). […] Five-min test sessions were video-recorded with a tripod-mounted camcorder. Percent time in open areas and number of entries into open areas were scored from the taped records using Observer 3.0 software (Noldus, Wageningen, The Netherlands). […] Dose-response data were analyzed by one-way analysis of variance. […]

Structures are written as SMILES.

We go through five molecules from patent publication US8575375B2, “Androstane and pregnane steroids with potent allosteric GABA receptor chloride ionophore modulating properties” (Research Triangle Institute, priority 2007, dated 2013).

On to `CN(C)c1ccc([C@H]2C[C@]3(C)[C@@H](O)CC[C@H]3[C@@H]3CC[C@H]4C[C@](C)(O)CC[C@@H]4[C@H]32)cc1.Cl`, for which the melting point (as a rule, the temperature, or range, at which the solid turns liquid) was 230 to 232 °C (dec.).

Take `C[C@]12CC[C@@H](O)C[C@@H]1CC[C@@H]1[C@@H]2CC[C@]2(C)[C@@H]([N+](=O)[O-])CC[C@@H]12` [Compound A2-A, 17β-Nitro-5α-androstan-3α-ol]: in the data set with GABAA receptor [1], the “[3H]Flunitrazepam Emax” value was 103% and the EC50 (as a rule, the concentration at which the effect is half-maximal) is 24 ± 2.5 nM. The IC50 (in general, the concentration needed to halve the response being measured) on GABAA receptor [2] is 13 ± 0.13 nM. Also, the “reduction of chemically (PTZ) induced seizures” value in data set [3] was “reduce”. Also, in data set [4], the “reduction of electrically (6 Hz) induced seizures” value is “reduce”. The “percentage of time spent in open arms of the maze” value in data set [5] (FIG. 1A) is reported as “significantly enhanced”. For the same molecule, the “number of entries (open arms)” value in data set [5] (FIG. 1B) is given as “significantly enhanced”.

In turn, `C[C@@]1(O)CC[C@@]2(C)[C@@H](CC[C@@H]3[C@@H]2CC[C@]2(C)[C@@H]([N+](=O)[O-])CC[C@@H]32)C1` [Compound A2-B, 3α-Hydroxy-3β-methyl-17β-nitro-5α-androstane] came in with a melting point of 211 to 213 °C. In the data set with GABAA receptor [1], the “[3H]Flunitrazepam Emax” value is recorded as 99.1% and the concentration giving a half-maximal response (EC50) amounted to 33.5 ± 4.9 nM. For the same molecule, at GABAA receptor [2], the IC50 came to 17.9 ± 6.19 nM.

Molecule `CS[C@H]1CCC2C3CC[C@H]4C[C@H](O)CC[C@]4(C)C3CC[C@@]21C` (stereo partly drawn) [Compound B-5, 3α-Hydroxy-17β-thiomethyl-5α-androstane] showed a melting point of 151 to 153 °C. Further, in the data set on GABAA receptor [1], the “[3H]Flunitrazepam Emax” value amounted to 131.7% and the EC50 came to 75.9 ± 12.4 nM. Besides, the IC50 on GABAA receptor [2] came out at 32 ± 5.19 nM.

In the case of `CN(C)c1ccc([C@H]2C[C@@]3(C)C(CC[C@@H]3[N+](=O)[O-])C3CC[C@H]4C[C@](C)(O)CCC4C32)cc1` (stereo partly drawn) [Compound C-8, 11β-[4-(N,N-Dimethylamino)phenyl]-3α-hydroxy-3β-methyl-5α-17β-nitro-estrane], in the data set with GABAA receptor [1], the “[3H]Flunitrazepam Emax” value is given as 135% and the EC50 is 39.5 ± 20.6 nM. Further, at GABAA receptor [2], the half-maximal inhibitory concentration (IC50) came out at 9.79 ± 1.93 nM.
